Values belong to the compound of their own block, whether it stands above or below them. Peptide text beside a SMILES is read from it.
Assays:
[1] = Inhibition of amino terminal GST tagged HCMV protease I2A mutant (1 to 256 residues) expressed in Escherichia coli BL21 (DE3) cells using 5-carboxyfluorescein [FAM]-RGVVNASSRLAK as peptide substrate incubated for 3 hrs by fluorescence based analysis; design: species or system Human betaherpesvirus 5
[2] = Inhibition of N-terminal 6 His-tagged HHV6 protease […] mutant (2 to 230 residues) expressed in Escherichia coli BL21 cells using 5FAM-KPSILNASLTPETVKK as peptide substrate incubated for 3 hrs by fluorescence based analysis; design: species or system Human betaherpesvirus 6
[3] = Inhibition of amino terminal GST tagged HCMV protease F1A mutant (1 to 256 residues) expressed in Escherichia coli BL21 (DE3) cells using 5-carboxyfluorescein [FAM]-RGVVNASSRLAK as peptide substrate incubated for 3 hrs by fluorescence based analysis; design: species or system Human betaherpesvirus 5
[4] = Inhibition of N-terminal 6 His-tagged HHV6 protease F1A mutant (2 to 230 residues) expressed in Escherichia coli BL21 cells using 5FAM-KPSILNASLTPETVKK as peptide substrate incubated for 3 hrs by fluorescence based analysis; design: species or system Human betaherpesvirus 6
[5] = Cytotoxicity against HFF cells assessed as inhibition in cell viability incubated for 5 days by luminescence based analysis; format: toxicity; settings: human, time 5 day
[6] = Inhibition of amino terminal GST tagged HCMV protease (1 to 256 residues) expressed in Escherichia coli BL21 (DE3) cells using 5-carboxyfluorescein [FAM]-RGVVNASSRLAK as peptide substrate incubated for 3 hrs by fluorescence based analysis; design: species or system Human betaherpesvirus 5
Human betaherpesvirus 5 [7] = assay: Inhibition of amino terminal GST tagged HCMV protease (1 to 256 residues) expressed in Escherichia coli BL21 (DE3) cells using 5-carboxyfluorescein [FAM]-RGVVNASSRLAK as peptide substrate at 99 uM incubated for 3 hrs by fluorescence based analysis relative to control
Human betaherpesvirus 5 [8] = assay: Antiviral activity against HCMV infected in HFF cells assessed as reduction in viral replication; format: functional, organism-based; settings: Human betaherpesvirus 5, HFF
Human betaherpesvirus 6 = assay: Inhibition of N-terminal 6 His-tagged HHV6 protease (2 to 230 residues) expressed in Escherichia coli BL21 cells using 5FAM-KPSILNASLTPETVKK as peptide substrate at 99 uM incubated for 3 hrs by fluorescence based analysis relative to control
[9] = Inhibition of N-terminal 6 His-tagged HHV6 protease (2 to 230 residues) expressed in Escherichia coli BL21 cells using 5FAM-KPSILNASLTPETVKK as peptide substrate incubated for 3 hrs by fluorescence based analysis; design: species or system Human betaherpesvirus 6
[10] = Inhibition of amino terminal GST tagged HCMV protease Y6A mutant (1 to 256 residues) expressed in Escherichia coli BL21 (DE3) cells using 5-carboxyfluorescein [FAM]-RGVVNASSRLAK as peptide substrate incubated for 3 hrs by fluorescence based analysis; design: species or system Human betaherpesvirus 5
[11] = Inhibition of N-terminal 6 His-tagged HHV6 protease Y6A mutant (2 to 230 residues) expressed in Escherichia coli BL21 cells using 5FAM-KPSILNASLTPETVKK as peptide substrate incubated for 3 hrs by fluorescence based analysis; design: species or system Human betaherpesvirus 6
[12] = Inhibition of amino terminal GST tagged HCMV protease V8A mutant (1 to 256 residues) expressed in Escherichia coli BL21 (DE3) cells using 5-carboxyfluorescein [FAM]-RGVVNASSRLAK as peptide substrate incubated for 3 hrs by fluorescence based analysis; design: species or system Human betaherpesvirus 5
[13] = Inhibition of N-terminal 6 His-tagged HHV6 protease V8A mutant (2 to 230 residues) expressed in Escherichia coli BL21 cells using 5FAM-KPSILNASLTPETVKK as peptide substrate incubated for 3 hrs by fluorescence based analysis; design: species or system Human betaherpesvirus 6

SMILES: CC(=O)N[C@@H](Cc1ccccc1)C(=O)N[C@@H](C)C(=O)N[C@H](C(=O)NCC(=O)N[C@@H](Cc1c[nH]cn1)C(=O)N[C@@H](Cc1ccc(O)cc1)C(=O)N[C@@H](Cc1c[nH]c2ccccc12)C(=O)N[C@H](C(=O)N[C@@H](CCCNC(=N)N)C(=O)N[C@@H](Cc1ccccc1)C(=O)N[C@@H](CC(C)C)C(=O)N1CCC[C@H]1C(=O)N[C@@H](CS)C(=O)NCC(N)=O)C(C)C)[C@@H](C)O (Ac-FATGHYWVRFLPCG-NH2)
IC50 [1]: 0.184 µM
IC50 [2]: < 0.076 µM

SMILES: CC[C@H](C)[C@H](NC(=O)[C@H](C)NC(C)=O)C(=O)N[C@H](C(=O)NCC(=O)N[C@@H](Cc1c[nH]cn1)C(=O)N[C@@H](Cc1ccc(O)cc1)C(=O)N[C@@H](Cc1c[nH]c2ccccc12)C(=O)N[C@H](C(=O)N[C@@H](CCCNC(=N)N)C(=O)N[C@@H](Cc1ccccc1)C(=O)N[C@@H](CC(C)C)C(=O)N1CCC[C@H]1C(=O)N[C@@H](CS)C(=O)NCC(N)=O)C(C)C)[C@@H](C)O (Ac-AITGHYWVRFLPCG-NH2)
IC50 [3]: 0.079 µM
IC50 [4]: 0.14 µM

SMILES: CC[C@H](C)[C@H](NC(=O)[C@H](Cc1ccccc1)NC(C)=O)C(=O)N[C@H](C(=O)NCC(=O)N[C@@H](Cc1c[nH]cn1)C(=O)N[C@@H](C)C(=O)N[C@@H](Cc1c[nH]c2ccccc12)C(=O)N[C@H](C(=O)N[C@@H](CCCNC(=N)N)C(=O)N[C@@H](Cc1ccccc1)C(=O)N[C@@H](CC(C)C)C(=O)N1CCC[C@H]1C(=O)N[C@@H](CS)C(=O)NCC(N)=O)C(C)C)[C@@H](C)O (Ac-FITGHAWVRFLPCG-NH2)
IC50 [10]: 0.689 µM
IC50 [11]: 0.085 µM

SMILES: CC[C@H](C)[C@H](NC(=O)[C@H](Cc1ccccc1)NC(C)=O)C(=O)N[C@H](C(=O)NCC(=O)N[C@@H](Cc1c[nH]cn1)C(=O)N[C@@H](Cc1ccc(O)cc1)C(=O)N[C@@H](Cc1c[nH]c2ccccc12)C(=O)N[C@@H](C)C(=O)N[C@@H](CCCNC(=N)N)C(=O)N[C@@H](Cc1ccccc1)C(=O)N[C@@H](CC(C)C)C(=O)N1CCC[C@H]1C(=O)N[C@@H](CS)C(=O)NCC(N)=O)[C@@H](C)O (Ac-FITGHYWARFLPCG-NH2)
IC50 [12]: 0.096 µM
IC50 [13]: < 0.076 µM

More lines, main results first:

IC50 [6]: > 99 µM
EC50 (Human betaherpesvirus 5 [8]): 90 µM
IC50 [9]: > 99 µM
SMILES: CN1C(=O)N(c2cccn([C@H](c3ccccc3)c3cn(C4CCCC4)nc3-c3ccccc3)c2=O)C[C@@H]1C(=O)Nc1ccc[nH]c1=O
CC50 at 120 h [5]: 89 µM
inhibition (Human betaherpesvirus 5 [7]): 2%
inhibition (Human betaherpesvirus 6): 12%

IC50 [6]: 30 µM
IC50 [9]: 24 µM
SMILES: Cc1ccccc1C(c1cn(C2CCCC2)nc1-c1ccccc1)n1cccc(N2C[C@H](C(=O)NC34CCC(CC3)NC4=O)N(C)C2=O)c1=O (mixture of isomers)

IC50 [6]: > 99 µM
IC50 [9]: > 99 µM
SMILES: CC[C@H](C)[C@H](NC(C)=O)C(=O)N[C@H](C(=O)NCC(=O)N[C@@H](Cc1c[nH]cn1)C(=O)N[C@@H](Cc1ccc(O)cc1)C(=O)N[C@@H](Cc1c[nH]c2ccccc12)C(N)=O)[C@@H](C)O (Ac-ITGHYW-NH2)
inhibition (Human betaherpesvirus 5 [7]): 2%
inhibition (Human betaherpesvirus 6): 21%

IC50 [6]: > 99 µM
IC50 [9]: 50 µM
SMILES: Cc1ccc([C@H](c2cn(C3CCCC3)nc2-c2ccccc2C)n2cccc(N3C[C@H](C(=O)NC45CCC(CC4)NC5=O)N(C)C3=O)c2=O)cc1
inhibition (Human betaherpesvirus 5 [7]): 39%
